Laboratory results: patent US9340575B2, “Agonists and antagonists of the urotensinergic system” (INSTITUT NATIONAL DE LA RECHERCHE SCIENTIFIQUE, priority 2011, dated 2016)
Marks after values point to notes of the source that are not given here. Square brackets hold non-standard residues; d marks the D form. Peptide text beside a SMILES is read from it. pGlu = O=C1CC[CH](C(=O)O)N1

Columns and labels:
rat thoracic aorta rings [1] = assay type: cell-based; conditions: for Aortic Ring contraction pEC50: endothelium-denuded rat thoracic aorta; for Aortic Ring contraction Emax (%): percentage of contraction induced by KCl (40 mM); for Aortic Ring contraction Emax (%), maximum efficacy at 10^−5.5M: percentage of KCl (40 mM) contraction
Procedure: Binding and functional experiments were performed at least in triplicate and data, expressed as mean±S.E.M, were analyzed using the Prism software (Graph Pad Software, San Diego, Calif.). In all experiments, n represents the total number of animals studied or individual assays performed. The EC50, pEC50, pIC50 values as well as the Emax value were determined from the concentration-response curves using a sigmoidal dose-response fit with variable slope. […] The slope is calculated from the double reciprocal plot of equiactive concentrations of agonist in the presence and absence of antagonist.

[2] = molecular target: T1, human urotensin II receptor (UT) (Homo sapiens, UniProt Q9UKP6); test: Competitive radioligand binding on CHO-UT cells
T1 construct: expressed in transfected cells; host or cells: CHO cells (CHO-UT), stably transfected, G418 selection
T1 sequence (Q9UKP6 1-389): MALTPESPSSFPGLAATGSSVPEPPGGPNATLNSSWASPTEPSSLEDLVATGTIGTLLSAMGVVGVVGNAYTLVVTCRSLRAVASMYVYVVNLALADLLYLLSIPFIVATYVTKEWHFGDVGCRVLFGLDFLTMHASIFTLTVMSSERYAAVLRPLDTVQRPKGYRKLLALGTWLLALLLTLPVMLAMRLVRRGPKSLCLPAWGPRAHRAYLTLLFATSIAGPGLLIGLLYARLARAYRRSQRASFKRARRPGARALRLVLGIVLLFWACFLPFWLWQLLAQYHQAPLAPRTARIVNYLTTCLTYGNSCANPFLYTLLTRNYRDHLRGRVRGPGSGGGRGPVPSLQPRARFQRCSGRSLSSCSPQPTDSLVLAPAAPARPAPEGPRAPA
Procedure: Transfected CHO cells expressing the human urotensin receptor (CHO-UT) were maintained in Ham-F12 medium with 10% fetal bovine serum (FBS), 2 mM L-glutamine, 100 UI/mL each of penicillin and streptomycin, and 400 μg/mL G418. […] Binding assays were following known literature procedures using CHO cells stably transfected with hGPR14. […] After 90 min of incubation at room temperature, cells were washed, lysed, and the cell-bound radioactivity was quantified using a γ-counter. […] The cells were then washed, lysed, and the radioactivity counted on a γ-counter (1470 Automatic Gamma Counter, Perkin Elmer). Binding and functional experiments were performed at least in triplicate and data, expressed as mean±S.E.M, were analyzed using the Prism software (Graph Pad Software, San Diego, Calif.). In all experiments, n represents the total number of animals studied or individual assays performed. The EC50, pEC50, pIC50 values as well as the Emax value were determined from the concentration-response curves using a sigmoidal dose-response fit with variable slope. […] The slope is calculated from the double reciprocal plot of equiactive concentrations of agonist in the presence and absence of antagonist.

rat thoracic aorta rings [3] = test: Effect on ET-1-induced contraction of rat aortic ring; assay type: cell-based; conditions: without [Bip^4]URP
Procedure: (§1) Male rats (Sprague-Dawley, 250-300 g) were killed by CO2 asphyxiation. The thoracic aorta was then cleared of surrounding tissues and excised from aortic arch to the diaphragm. From each vessel, conjunctive tissues were removed and the clean vessel was cut into 4 mm rings. The endothelium was removed by gently rubbing the vessel's intimal surface. All preparations were placed in 5 ml organ baths filled with oxygenated normal Krebs-Henselheit solution. Contractile responses to 40 mM KCl were used as control at the beginning and at the end of each experiment. Agonistic activity was measured by increasing the concentration of the peptide in the organ chamber (3×10^−11-3×10^−6 M). For antagonist behaviour, thoracic aortic rings were first exposed to URP derivative over a period of 15 min, and then cumulative concentration-response curves to hUII, URP or ET-1 (10^−10-3×10^−6 M) were constructed. The amplitude of the contraction induced by each concentration of peptide was expressed as a percentage of the KCl-induced contraction. Finally, the ability of the antagonist to reverse the hUII-induced contraction was also evaluated. Vessels were pre-contracted with 4 nM hUII (pre-determined EC80) and after the maximum contraction was attained, contractile tone was reversed by adding increasing log unit concentrations of URP derivative.

anaesthetized rats = test: Hemodynamic assessment (arterial blood pressure) in anaesthetized rats; assay type: in vivo, rat
Procedure: Male Sprague-Dawley rats, weighing 350-400 g, were anaesthetized by isoflurane inhalation delivered in 100% oxygen (1 l/min) from an Ohmeda Tec 4 anaesthetic vaporizer (Somatechnology, Inc., Bloomfield, Conn., USA). Anaesthesia was maintained by mask inhalation of isoflurane vaporized at concentrations of up to 3% in the induction phase, at 1.5% during acute surgical procedures and at 0.8-1.0% during experimental observations. […]. […] A period of stabilisation of 30 min was observed and the following experimental protocols were then performed and arterial blood pressure was evaluated. During isoflurane inhalation, no breathing complications or changes in blood pressure were observed. […].
In a preliminary study, individual rats received a single i.v. injection of hUII ranging from 1 to 30 nmol/kg. A dose-response curve, reflecting the effect of hUII on the change in blood pressure, was then determined.
In this set of experiments, five groups of rats were used. […] […]. Hemodynamic changes were continuously captured by the pressure probe over a period of 1 h. The maximum rise and the maximum drop in blood pressure was determined and analyzed using the PowerLab software (ADInstruments, Colorado Springs, Colo., USA).
In the control group, the rats received two doses of hUII (10 nmol/kg) with a 30 min interval between the first and second injection.

rat thoracic aorta rings [4] = test: Antagonism of UII- or URP-induced contraction of rat aortic ring; assay type: cell-based; conditions: pretreatment 10^−6M, 15 min
Procedure: as §1, with “derivative. […] Binding and functional experiments were performed at least in triplicate and data, expressed as mean±S.E.M, were analyzed using the Prism software (Graph Pad Software, San Diego, Calif.). In all experiments, n represents the total number of animals studied or individual assays performed. The EC50, pEC50, pIC50 values as well as the Emax value were determined from the concentration-response curves using a sigmoidal dose-response fit with variable slope. Non-competitive antagonist affinities (pKb) were determined using the method of Gaddum where equiactive concentrations of agonist, in the absence or presence of URP derivative, were compared in a linear regression. The resulting slope was used to calculate the equilibrium constant Kb using the following equation: Kb=[B]/(slope−1); where [B] is the antagonist concentration. The slope is calculated from the double reciprocal plot of equiactive concentrations of agonist in the presence and absence of antagonist.” for “derivative.”

Molecule | Agonist behaviour in aortic ring contraction (in words) (rat thoracic aorta rings [1]) | EC50 (rat thoracic aorta rings [1]) | Aortic Ring contraction pEC50 (rat thoracic aorta rings [1]) | Aortic Ring contraction Emax (%) (rat thoracic aorta rings [1]) | Binding affinity for UT (in words) [2] | Aortic Ring contraction Emax (%), maximum efficacy at 10^−5.5M (rat thoracic aorta rings [1]) | further results
CC(C)[C@H](NC(=O)[C@@H]1CSSC[C@H](NC(=O)[C@H](C)N)C(=O)N[C@@H](Cc2ccccc2)C(=O)N2CCc3ccccc3[C@H]2C(=O)N[C@@H](CCCCN)C(=O)N[C@@H](Cc2ccc(O)cc2)C(=O)N1)C(=O)O [Compound 16, H-Ala-Cys-Phe-Tiq-Lys-Tyr-Cys-Val-OH] | contractile efficacy and potency comparable to the endogenous peptides | 22 nM | 7.66 ± 0.11 | 126 ± 5% | high binding affinity | – | –
CC(C)[C@H](NC(=O)[C@@H]1CSSC[C@H](NC(=O)[C@H](C)N)C(=O)N[C@@H](Cc2ccccc2)C(=O)N[C@@H](CC2CCCCC2)C(=O)N[C@@H](CCCCN)C(=O)N[C@@H](Cc2ccc(O)cc2)C(=O)N1)C(=O)O [Compound 6, H-Ala-Cys-Phe-Cha-Lys-Tyr-Cys-Val-OH] | full but weak agonist | > 1000 nM | <6 | – | – | 77^d % | Reduction in binding affinity compared to compound 5 ([2]; versus compound 5): 3 fold
endothelin-1 [ET-1, reference compound] | – | – | – | – | – | – | ET-1 Emax (rat thoracic aorta rings [3]): 119±6; ET-1 pEC50 (rat thoracic aorta rings [3]): 8.06±0.15
CC(C)[C@H](NC(=O)[C@@H]1CSSC[C@H](NC(=O)[C@H](C)N)C(=O)N[C@@H](Cc2ccccc2)C(=O)N[C@@H](Cc2c[nH]c3ccccc23)C(=O)N[C@@H](CCCCN)C(=O)N[C@@H](Cc2ccc(O)cc2)C(=O)N1)C(=O)O [Compound 2, reference compound] | – | 7 nM | 8.09±0.18 | 100±6% | high affinity | – | Hemodynamic response to bolus i.v. injection (anaesthetized rats; 0.01 μmol/kg i.v.): biphasic hemodynamic response; Time of hypotension nadir (anaesthetized rats; 0.01 μmol/kg i.v.): ~6 min; Time of pressor phase peak (anaesthetized rats; 0.01 μmol/kg i.v.): ~1 min; Response to repeated injections (anaesthetized rats; 10 nmol/kg twice, 30 min interval): equivalent biphasic responses; Effect of prior URP injection on hUII hemodynamic response (anaesthetized rats; hUII 30 min after URP bolus, 10 nmol/kg): such observation was not made; IC50 ([2]; Binding (125I-URP) IC50 (nM), radioligand 125I-URP, recombinant human UT): 31.8 nM; IC50 ([2]; Binding (125I-hUII) IC50 (nM), radioligand 125I-hUII, recombinant human UT): 12.4 nM; Binding (125I-hUII) pIC50 ([2]; radioligand 125I-hUII, recombinant human UT): 7.90 ± 0.11
CC(NC(=O)C(NC(=O)CNC(=O)C(Cc1c[nH]cn1)NC(=O)C1CCC(=O)N1)C(C)O)C(=O)N1CCCC1C(=O)NC(CCC(=O)O)C(N)=O (stereo not drawn) [rUII(1-7), Pyr-His-Gly-Thr-Ala-Pro-Glu-NH2] ([pGlu]HGTAPE-NH2; configuration not given here) | unable to induce the contraction of rat aortic rings | – | – | – | – | – | Effect on URP-associated contraction curve (in words) (rat thoracic aorta rings [4]): significant rightward shift; Effect on rUII-induced contraction (in words) (rat thoracic aorta rings [4]): did not significantly alter
CC(C)[C@H](NC(=O)[C@@H]1CSSC[C@H](NC(=O)[C@H](C)N)C(=O)N[C@@H](Cc2ccccc2)C(=O)N2Cc3ccccc3C[C@H]2C(=O)N[C@@H](CCCCN)C(=O)N[C@@H](Cc2ccc(O)cc2)C(=O)N1)C(=O)O [Compound 18, H-Ala-Cys-Phe-Tic-Lys-Tyr-Cys-Val-OH] | – | > 1000 nM | <6 | – | dramatic loss of binding affinity | 43% | –
